Reference: US12053465B2, “KCC2 expression enhancing compounds and uses thereof” (Whitehead Institute for Biomedical Research, priority 2017, dated 2024)

Columns and labels:
KCC2 expression [1] = assay: Western blot of KCC2 in cultured human RTT neurons; assay type: cell-based
Protocol: Protein samples were collected from cultured brain slices or cultured neurons in 12-well format with RIPA lysis buffer (in mM: 150 NaCl, 25 Tris-HCl, 1 EDTA, 1% NP-40, 1% sodium deoxycholate, 0.1% SDS, with protein kinase inhibitor and protease inhibitor, pH adjusted to 7.6). A sonication step was applied to homogenize tissue and extract protein, followed by a 10 minute centrifugation at 4° C. […] The PVDF membrane was blocked for 30 minutes with 5% milk in TBS+0.1% Tween 20 (TBST), and incubated overnight at 4° C. with primary antibodies diluted in TBST-milk at the following concentrations: KCC2 (1:2000, Millipore), NKCC1 (1:1000, Iowa Hybridoma bank), α-Tubulin (1:4000, Abcam), GAPDH (1:3000, Abcam), Actin (1:2000, Sigma Aldrich #A2066). The membrane was rinsed with TBST three times to wash off excess antibodies, and then incubated in secondary HRP antibodies in TBST-milk at 1:5000 concentration.
The PVDF membrane was then stripped using the Re-blot plus strong solution (Millipore), and re-immunoblotted for NKCC1 (˜150 kDa) to acquire KCC2/NKCC1 ratio. The area and intensity of protein signal was determined using ImageJ. The relative KCC2 and NKCC1 expression were calculated by normalizing protein signal to GAPDH or Tubulin loading control.

NKCC1 mRNA = assay: Quantitative RT-PCR of NKCC1 mRNA in organotypic mouse brain slices; assay type: cell-based
Protocol: (§1) Brain slices were also treated with the FLT3 inhibitors Crenolanib and XL-184. […] To assess whether increased KCC2 protein levels were due to increased gene transcription or enhanced protein stability, quantitative RT-PCR experiments were performed to measure the KCC2 mRNA level in KEEC-treated brain slices. […] In contrast, the expression of NKCC1, a chloride transporter that antagonizes KCC2 activity by shuttling Cl^− into the cell (44), was decreased by treatment with KEEC compounds (FIG. 8F).
(§2) Brain slice cultures were prepared from P1 neonatal mouse according to a protocol described by Antonio del Rio et al., Nature Protocols, 2010. Cerebrum slices (1 mm in thickness) were prepared from neonatal mouse brain, and were transferred to 6-well culture inserts with the pore size of 0.4 μm. The insert was placed in 6-well plates with 1 ml of culture medium. Three days after the initial culture, compounds and DMSO control were added to the medium. Alternately, in some experiments, brain slice cultures were prepared from P3 neonatal mouse according to a protocol described by Antonio del Rio et al., Nature Protocols, 2010. Cerebrum slices (1 mm in thickness) were prepared from neonatal mouse brain, and were transferred to 6-well culture inserts with the pore size of 0.4 μm. The insert was placed in 6-well plates with 1 ml of culture medium. The day after the initial culture, compounds and DMSO control were added to the medium. The medium with fresh compounds was used to replace old medium every other day. One week after drug treatment, the brain slices were harvested for Western blot or qRT-PCR analysis.
(§3) To prepare RNA samples from cultured organotypic brain slice, tissue samples were homogenized by passing through a 23 gauge needle for a number of times. Total RNA was extracted with Omega Total RNA kit and was reverse-transcribed into cDNA using the Invitrogen Superscript RT system and Oligo dT primer. SYBR green-based quantitative RT-PCR assay was performed to detect for the abundance of specific mRNA transcripts. The primer sequence for the detection of KCC2 expression in mouse brain samples are as follows: KCC2-Forward: […] (SEQ ID NO: 2); KCC2-Reverse: […] (SEQ ID NO: 3). The primer sequence for detection of NKCC1 mRNA are as follows: NKCC1-Forward: […] (SEQ ID NO: 3); NKCC1-Reverse: […] (SEQ ID NO: 4). The gene expression was calculated by normalizing the KCC2 data with the expression of housekeeping gene HDAC2 in every sample. HDAC2 expression was detected using the following primers: HDAC2-Forward: […] (SEQ ID NO: 5); HDAC2-Reverse: […] (SEQ ID NO: 6). Relative gene expression levels were calculated by normalizing KCC2 or NKCC1 expression in drug-treated groups with that in DMSO controls with the housekeeping gene HDAC being used as internal control.

KCC2 expression [2] = assay: Western blot of KCC2 in cultured WT human neurons; assay type: cell-based; settings: cultured WT human neurons (WIBR1); Western blot
KCC2 mRNA = assay: Quantitative RT-PCR of KCC2 mRNA in organotypic mouse brain slices; assay type: cell-based
Protocol: as §1, §2, §3

KCC2 expression [3] = assay: Western blot of KCC2 in organotypic mouse brain slices; assay type: cell-based; settings: organotypic neonatal mouse brain slices, treated 7 days, vs DMSO, MeBIO or medium-only control
[4] = tested on: KCC2 expression (KCC2-2A-luciferase reporter); assay: KCC2-2A-luciferase reporter compound screening with RTT KCC2 reporter neurons; assay type: cell-based, human; settings: for B Score: MECP2-null RTT human KCC2 reporter neurons, LINCS, SMART, ICCB libraries, Luc/CTG normalized to in-plate DMSO, hit = B score >3
Protocol: The RTT KCC2-2A-luciferase reporter neurons were treated with the test compounds from the LINCS kinase inhibitor library and IRSF SMART compound library and incubated before being lysed. The cell lysate was divided into two parts to measure luciferase signal (KCC2 translation) and Cell-Titer Glow (CTG, amount of ATP). The luciferase signal was normalized to CTG for each well, and the Luc/CTG ratio was normalized to the in-plate DMSO negative control to calculate fold change ratio.
Additional screens for reporter activation in the MECP2-null RTT human KCC2 reporter neurons (isogenic to the WT reporter cells used above) were performed with the LINCS and SMART libraries as well as the ICCB known bioactive library and identified hits as compounds with B score >3.
The cells were dissociated with Accutase and resuspended in 10 ml neuronal differentiation medium to count cells. The cells were then diluted to the final density of 200,000 to 500,000 cells/ml. Matrigel was added to the cell suspension at a dilution ratio of 1:300 to promote cell adhesion after plating. AraC was added to cell suspension at the concentration of 2 μM to inhibit cell division. The cells were plated into 96-well plates with an automated cell seeding machine using the following protocol: The neuron flask was washed with PBS. The neurons were digested off the plate with Accutase for 30 minutes at 37° C. Next, the dissociated cells were collected and spun down at 750 rpm for 5 minutes. The cell pellet was dissociated by gentle trituration with P1000 pipet and the cells were resuspended with 10 ml of neuronal medium. Then, the cells were filtered through a 40 μm cell strainer (Falcon) to get rid of clumps. The resulting single-cell suspension was counted using a Countess automated cell counter (Invitrogen Countess Automated Cell Counter, Catalog no. C10227). The neurons were resuspended with neuronal medium to 10× of the destination density (100,000 cells to 400,000 cells per ml). The cells were plated with a multichannel pipette, or proceeded to the machine-plating protocol described below:
The day after cell seeding, small molecule compounds from the IRSF (International Rett Syndrome Foundation) library were prepared at a concentration of 1 mM and dispensed into a blank V-bottomed test plates at 2 μl per well. Compound solvent DMSO was included in every plate as control. Using a liquid handling robot, about 80 μl of culture medium were discarded. Neuronal medium in the volume of 200 μl was added to the V-bottom test plate that contained 2 μl of 1 mM compounds, and mixed with compounds by pipetting up-and-down 3 times. The medium that contained the 10 μM compounds was then applied to the neuronal cell culture and incubated for 2 weeks before cell lysis and luciferase assay were performed.
The cells were dissociated with Accutase, resuspended in 10 ml neuronal differentiation medium to count cells. the final cell seeding density was 20 k-40 k cells per well for 96-well plates, and ˜10 k cells per well for 384-well plates. Matrigel was added to the cell suspension at a dilution ratio of 1:300 to promote cell adhesion after plating. AraC were added to the cell suspension at the concentration of 0.5 μM to inhibit astroglial cell division. The cells were dispensed into 96-well or 384-well plates (Coming) using a BioTek EL406 plate dispenser. […] The neurons were incubated with the compounds at 37° C./5% CO2 for a week before the luciferase assay.
The cells used for luciferase assay were KCC2 reporter neurons differentiated for 4 weeks, and treated with drug in 96-well format for 2 weeks. Cell density was between 20 k-40 k cells per well.
On the day of the luciferase assay, the cells were washed with PBS for two times, and 100 μl of cell lysis buffer was applied to the washed cells. The cell plates were transferred to a rocker to shake for 10 minutes in order to fully lyse the cells.

NRSF/REST = settings: glioblastoma cell line; via SIRT1 pathway (49); cited from earlier work
REST = assay: Western blot of REST in cultured human RTT neurons; assay type: cell-based
Source text: Two hit compounds Resveratrol and Piperine act on different pathways than the kinase inhibitors, activating the Sirtuin 1 (SIRT1) (49) and the transient receptor potential cation channel subfamily V member 1 (TRPV1) (50) signaling pathways, respectively.
Protein samples were collected from cultured brain slices or cultured neurons in 12-well format with RIPA lysis buffer (in mM: 150 NaCl, 25 Tris-HCl, 1 EDTA, 1% NP-40, 1% sodium deoxycholate, 0.1% SDS, with protein kinase inhibitor and protease inhibitor, pH adjusted to 7.6). A sonication step was applied to homogenize tissue and extract protein, followed by a 10 minute centrifugation at 4° C. The protein samples were mixed with NuPAGE LDS sample buffer, heated at 95° C. for 10 minutes, and then separated on NuPAGE 4-12% Bis-Tris gel and transferred to PVDF membrane. The PVDF membrane was blocked for 30 minutes with 5% milk in TBS+0.1% Tween 20 (TBST), and incubated overnight at 4° C. with primary antibodies diluted in TBST-milk at the following concentrations: KCC2 (1:2000, Millipore), NKCC1 (1:1000, Iowa Hybridoma bank), α-Tubulin (1:4000, Abcam), GAPDH (1:3000, Abcam), Actin (1:2000, Sigma Aldrich #A2066). The membrane was rinsed with TBST three times to wash off excess antibodies, and then incubated in secondary HRP antibodies in TBST-milk at 1:5000 concentration.

immature mouse neurons = assay: Gramicidin-perforated patch recording of EGABA in DIV6-7 immature mouse neurons; assay type: cell-based
[5] = cultured human RTT neurons, Western blot
[6] = co-applied with EX-527 below the threshold for SIRT1 pathway inhibition
[7] = in the presence of a high concentration of SIRT1 pathway blocker EX-527, vs DMSO control

| SMILES | KCC2 expression (KCC2 expression [1]; [5]) | NKCC1 mRNA level (NKCC1 mRNA) | KCC2 expression (KCC2 expression [2]) | KCC2 mRNA level (KCC2 mRNA) | KCC2 protein level (KCC2 expression [3]) | KCC2 expression (KCC2 expression [1]; [6]) | concentration at which treatment significantly increases KCC2 expression (KCC2 expression [1]; cultured ESC-derived human RTT neurons, Western blot) | KCC2 expression (KCC2 expression [1]; [7]) | B Score [4] | KCC2 reporter activity in RTT neurons ([4]; RTT KCC2-2A-luciferase reporter neurons vs in-plate DMSO) | expression of NRSF/REST (NRSF/REST) | level of REST (REST; [6]) | REST expression (REST; [7]) | EGABA after treatment (immature mouse neurons; DIV6-7 immature mouse neurons, untreated about −50 mV) | significant hyperpolarizing shift in EGABA (immature mouse neurons; DIV6 cultured immature mouse neurons) |
| --- | --- | --- | --- | --- | --- | --- | --- | --- | --- | --- | --- | --- | --- | --- | --- |
| CC1(COc2ccc3c(c2)ncn3-c2ccc3cccc(N4CCC(N)CC4)c3n2)COC1 [Crenolanib, 1-(2-{5-[(3-Methyloxetan-3-yl)methoxy]-1H-benzimidazol-1-yl}quinolin-8-yl)piperidin-4-amine] | significant enhancement of KCC2 expression | significant reduction in NKCC1 mRNA level | significant enhancement of KCC2 expression | significantly increased KCC2 expression | significantly increased the KCC2 protein level | – | – | – | – | – | – | – | – | – | – |
| O=C1Nc2ccccc2/C1=C1/Nc2ccccc2/C1=N\O [Indirubin-monoxime, (2Z,3E)-3-(hydroxyimino)-[2,3′-biindolinylidene]-2′-one] | increased KCC2 expression levels significantly | significant reduction in NKCC1 mRNA level | – | significantly increased KCC2 expression | – | – | – | – | – | – | – | – | – | – | – |
| Oc1ccc(/C=C/c2cc(O)cc(O)c2)cc1 [Resveratrol, 3,5,4'-trihydroxy-trans-stilbene] | increase KCC2 expression | – | – | – | – | substantial increase in KCC2 expression | 10 µM | neither KCC2 nor REST was changed | 12.65 | significant increase of KCC2 reporter activity | reduces expression of the neuronal gene repressor NRSF/REST | reduction in the level of REST | neither KCC2 nor REST was changed | – | – |
| CCN(CC)CCNC(=O)c1c(C)[nH]c(/C=C2\C(=O)Nc3ccc(F)cc32)c1C [Sunitinib, N-(2-diethylaminoethyl)-5-[(Z)-(5-fluoro-2-oxo-1H-indol-3-ylidene)methyl]-2,4-dimethyl-1H-pyrrole-3-carboxamide] | – | significant reduction in NKCC1 mRNA level | significant enhancement of KCC2 expression | significantly increased KCC2 expression | – | – | – | – | – | – | – | – | – | – | – |
| COc1cc2nccc(Oc3ccc(NC(=O)C4(C(=O)Nc5ccc(F)cc5)CC4)cc3)c2cc1OC [XL-184, N′-[4-[(6,7-dimethoxy-4-quinolinyl)oxy]phenyl]-N-(4-fluorophenyl)-1,1-cyclopropanedicarboxamide] | significant enhancement of KCC2 expression | significant reduction in NKCC1 mRNA level | significant enhancement of KCC2 expression | significantly increased KCC2 expression | significantly increased the KCC2 protein level | – | – | – | 3.25 | – | – | – | – | about −70 mV | induces significant hyperpolarizing shift in EGABA |
